Data taken from US4956389A, “Compounds having calcium blocking activity” (priority 1982, dated 1990).

Experiments:
[1] = system: mitochondria of liver of rats; assay: Inhibition of Ca2+-uptake in mitochondria of liver of rats; format: biochemical, rat; conditions: 250 μM
Method: The mitochondria prepared according to classical methods are diluted to a concentration of 1.5 mg/cc in a medium of incubation which has the following composition:
After a period of 15 minutes of preincubation at 20° C. there was added ^45 CaCl2 (50 n mol/mg prot.).
In a manner analogous to the preceding experiments, the concentrations determined after two minutes were called the concentration at 0 period of time. The other controls were determined after 5 minutes, after 10 minutes and after 15 minutes. For the determination of Ca^2+, the experiment was carried out in a manner analogous to the preceding experiments.
The results are reported in Table 3 as the quantity of Ca transferred per mg of protein

[2] = system: mitochondria of liver of rats; assay: Study on the Ca2+-efflux in mitochondria of liver of rats; format: biochemical, rat; conditions: 250 μM
Excerpt: The mitochondria of liver of rats prepared as in the preceding experiment were "charged" with Ca and subsequently, taken in a medium deprived of this ion. In the presence of an uncoupling agent or "Ruthenium Red", there is a flow of Ca^2+ ion from the mitochondria into the medium.
The results reported in Table 4 are expressed as the quantity of Ca transferred from the mitochondria per mg of protein per minute.

[3] = system: rats; assay: Antagonistic effect to biochemical disturbances during the post-oligemic period in rats; format: in vivo, rat
Method: Oligemia in rats is caused by simultaneous bilateral occlusion of the carotid arteries associated with a slight decrease (8-9 kPa) of blood pressure and is maintained for 60 minutes. After removal of the occlusion, the post-oligemic period is followed for several days. In this case, the observation is continued up to the third day, at the time during which the brain accumulation of Ca^++ ions reaches the maximum.
The substances YS 035 or Nicardipine respectively, are administered to rats, 1, 5, 18, 24, 42 and 71 hours after having removed the carotid occlusion. The rats are sacrificed after 72 hours and the tissues are rapidly removed in order to determine their content of water, calcium and potassium.

[4] = system: synaptosomes of the brain of rats; assay: Inhibition of the Ca2+-uptake in synaptosomes of the brain of rats; format: biochemical, rat; conditions: 250 μM
Method: The synaptosomes have been prepared from an homogenate of the brain of rats by centrifugation in the gradient of Filcoll at 23,500 rpm for a period of 30 minutes and diluted to 1.5 mg/cc in the medium constituted by:
After 15 minutes of preincubation, ^45 CaCl2, final concentration 1 mM (0.2μCi/cc is added to the medium).
The first determination has been carried out two minutes after the addition. […] After each period, the reaction has been stopped by centrifugation and the radioactivity has been determined in the supernatant as well as in the pellet. The latter had been denatured previously with PCA, neutralized and subsequently centrifuged.

Question: Which results are given for `COc1ccc(CCN(C)CCc2ccc(OC)c(OC)c2)cc1OC` [YS 035, N-methyl-N-bis-(3,4-dimethoxy-phenyl-ethyl)amine]?
Answer: Ca2+-uptake ([1]; 20° C., control 14.3): 11.0 n g ions/mg prot.; inhibitory activity on the uptake of Ca (in words) ([1]; compared with nifedipine): slightly inferior to the activity of nifedipine; uncoupling action (in words) [2]: does not exhibit this action; Ca2+-efflux induced by Ruthenium red ([2]; control 0.7): 0.6 n g ions/min. mg/prot; Ca2+-efflux induced by uncoupling agent ([2]; control 8.3): 5.4 n g ions/min. mg/prot; Cerebral concentration, Ca++ ([3]; 3 mg·Kg^-1 P.O. 7×, 72 h, post-oligemic controls 28.2 ± 3.22): 10.7 ± 2.46 mmol·Kg^-1 of dry substance; Cerebral concentration, H2O ([3]; 3 mg·Kg^-1 P.O. 7×, 72 h, post-oligemic controls 80.1 ± 0.37): 79.0 ± 0.44%; Cerebral concentration, K+ ([3]; 3 mg·Kg^-1 P.O. 7×, 72 h, post-oligemic controls 366.2 ± 12.58): 420.0 ± 11.85 mmol·Kg^-1 of dry substance; intracellular accumulation of Ca++ ions (in words) ([3]; rat, in vivo): reduce substantially; seriousness of the cerebral edema (in words) ([3]; rat, in vivo): capable of reducing the seriousness of the cerebral edema; inhibitory activity on the calcium uptake (in words) [4]: comparable to the activity exhibited by Nifedipine; Ca2+-uptake ([4]; 45CaCl2 1 mM, control 80 ± 7): 47 ± 4 n g ions/mg prot/15 min
